Where “and” joins values, the source holds several entries; their conditions need not be identical. Equal values may be shown once. Where a SMILES comes first, the peptide text is derived from it. [ ]: non-standard residue; d: D form. Hyp = O=C(O)[C@@H]1C[C@@H](O)CN1
System: Fas Ligand
Test: Example 9 Luminex, LPS hPBMCs: Fas Ligand
Format: cell-based, human
Conditions: for MFI, bead Fas Ligand / Fas Ligand Concentration / Fas Ligand conc/live cell: single replicates
Procedure: Treatment Human PBMCs were pretreated with YY-101, YDE-011 and YDE-043 or reference compound; Xiidra® at various concentration (ranging from 1 nM to 100 uM) for 2 h before stimulation. An equal volume of 0.5% DMSO was used as a vehicle control. Then, the cells were treated with LPS at 5 ug/ml. The supernatants from treated cells were harvested at 24 h and placed in a 96 well for Luminex cytokine & chemokine profiling using a Luminex 200 multiplex assay (Luminex; R&D system, USA).
The main study arm with triplicate wells per group in a 24-well plate: • 1. Blank • 2. PBMC: 0.5% DMSO • 3. PBMC+LPS (5 ug/ml) • 4. PBMC+YY-101 100 uM • 5. PBMC+YY-101 10 uM • 6. PBMC+YY-101 1 uM • 7. PBMC+YY-101 0.1 uM • 8. PBMC+YY-101 0.01 uM • 9. PBMC+LPS (5 ug/ml)+Xiidra®100 uM • 10. PBMC+LPS (5 ug/ml)+Xiidra® 10 uM • 11. PBMC+LPS (5 ug/ml)+Xiidra® 1 uM • 12. PBMC+LPS (5 ug/ml)+Xiidra®0.1 uM • 13. PBMC+LPS (5 ug/ml)+Xiidra®0.01 uM • 14. PBMC+LPS (5 ug/ml)+Xiidra®0.001 uM • 15. PBMC+LPS (5 ug/ml)+YY-101 100 uM • 16. PBMC+LPS (5 ug/ml)+YY-101 10 uM • 17. PBMC+LPS (5 ug/ml)+YY-101 1 uM • 18. PBMC+LPS (5 ug/ml)+YY-101 0.1 uM • 19. PBMC+LPS (5 ug/ml)+YY-101 0.01 uM • 20. PBMC+LPS (5 ug/ml)+YY-101 0.001 uM • 21. PBMC+LPS (5 ug/ml)+YDE-011 100 uM • 22. PBMC+LPS (5 ug/ml)+YDE-011 10 uM • 23. PBMC+LPS (5 ug/ml)+YDE-011 1 uM • 24. PBMC+LPS (5 ug/ml)+YDE-011 0.1 uM • 25. PBMC+LPS (5 ug/ml)+YDE-011 0.01 uM • 26. PBMC+LPS (5 ug/ml)+YDE-011 0.001 uM • 27. PBMC+LPS (5 ug/ml)+YDE-043 100 uM • 28. PBMC+LPS (5 ug/ml)+YDE-043 10 uM • 29. PBMC+LPS (5 ug/ml)+YDE-043 1 uM • 30. PBMC+LPS (5 ug/ml)+YDE-043 0.1 uM • 31. PBMC+LPS (5 ug/ml)+YDE-043 0.01 uM • 32. PBMC+LPS (5 ug/ml)+YDE-043 0.001 uM
Multiplex assay was used to measure 30 cytokines and chemokines. The 1:2, 1:10 and 1:200 diluted cell supernatant and serial dilution of the standard were dispensed into a 96 well plate at 50 ul/well. Then, the pre-mixed cocktail of antibody-coated magnetic beads was dispensed at 50 ul/well and incubated at room temperature for 2 h in a horizontal orbital microplate shaker at 800±500 rpm. The beads were washed using a magnetic device to prevent loss. The biotin-antibody was dispensed in 50 ul of each well and incubated at room temperature for 1 h in a shaker at 800±500 rpm. After washing, streptavidin-PE was added at 50 ul/well and incubated at room temperature for 30 min in a shaker under the same conditions. Finally, after washing, wash buffer (100 ul/well) was added to the plate and incubated in a shaker for 2 min. The Luminex™ 200 setting were set according to the manufacturer's protocol. The data was calculated with a standard five-parameter logistic nonlinear regression analysis of the data (xPonent software 4.2, USA). The levels of cytokine/chemokine are normalized to the live cell counts (1×10^5 cells/mL) and presented as concentrations per mL (pg/mL or ng/mL).

[1] = PBMC + LPS(5 ug/ml) + test article 0.1 uM
[2] = PBMC + LPS(5 ug/ml) + test article 1 uM
[3] = PBMC + LPS(5 ug/ml) + test article 10 uM
[4] = PBMC + LPS(5 ug/ml) + test article 100 uM
[5] = PBMC + test article 0.01 uM, no LPS
[6] = PBMC + test article 0.1 uM, no LPS
[7] = PBMC + test article 1 uM, no LPS
[8] = PBMC + test article 10 uM, no LPS
[9] = PBMC + test article 100 uM, no LPS

SMILES: CC(C)C[C@H](NC(=O)CNC(=O)[C@H](CC(=O)O)NC(=O)[C@H](CCC(N)=O)NC(=O)CNC(=O)[C@@H]1C[C@@H](O)CN1)C(=O)N[C@@H](C)C(=O)NCC(=O)N1CCC[C@H]1C(=O)N[C@@H](CCCCN)C(=O)O [YY-101] (H-[Hyp]GQDGLAGPK-OH; N-terminus and C-terminus assumed)
- MFI, bead Fas Ligand (PBMC + LPS(5 ug/ml) + test article 0.01 uM): 43.0 and 55.5 and 44.0
- Fas Ligand Concentration, Mean [1]: 29.5 pg/mL
- Fas Ligand conc/live cell, Mean [1]: 5.1 pg/10^5
- MFI, bead Fas Ligand, Mean [1]: 41.3
- Fas Ligand Concentration [1]: 32.7 pg/mL and 30.7 pg/mL and 25.2 pg/mL
- Fas Ligand conc/live cell [1]: 5.3 pg/10^5 and 5.9 pg/10^5 and 4.1 pg/10^5
- MFI, bead Fas Ligand [1]: 46.0 and 43.0 and 35.0
- Fas Ligand Concentration, Mean [2]: 34.5 pg/mL
- Fas Ligand conc/live cell, Mean [2]: 5.3 pg/10^5
- MFI, bead Fas Ligand, Mean [2]: 48.5
- Fas Ligand Concentration [2]: 35.5 pg/mL and 36.2 pg/mL and 31.7 pg/mL
- Fas Ligand conc/live cell [2]: 5.6 pg/10^5 and 5.1 pg/10^5 (2×)
- MFI, bead Fas Ligand [2]: 50.0 and 51.0 and 44.5
- Fas Ligand Concentration, Mean [3]: 46.7 pg/mL
- Fas Ligand conc/live cell, Mean [3]: 7.3 pg/10^5
- MFI, bead Fas Ligand, Mean [3]: 66.0
- Fas Ligand Concentration [3]: 58.0 pg/mL and 53.7 pg/mL and 28.6 pg/mL
- Fas Ligand conc/live cell [3]: 9.7 pg/10^5 and 8.4 pg/10^5 and 3.8 pg/10^5
- MFI, bead Fas Ligand [3]: 82.0 and 76.0 and 40.0
- Fas Ligand Concentration, Mean [4]: 25.4 pg/mL
- Fas Ligand conc/live cell, Mean [4]: 4.3 pg/10^5
- MFI, bead Fas Ligand, Mean [4]: 35.2
- Fas Ligand Concentration [4]: 39.0 pg/mL and 16.0 pg/mL and 21.1 pg/mL
- Fas Ligand conc/live cell [4]: 6.2 pg/10^5 and 2.6 pg/10^5 and 4.2 pg/10^5
- MFI, bead Fas Ligand [4]: 55.0 and 21.5 and 29.0
- Fas Ligand Concentration, Mean [5]: 7.7 pg/mL
- Fas Ligand conc/live cell, Mean [5]: 1.5 pg/10^5
- MFI, bead Fas Ligand, Mean [5]: 8.8
- Fas Ligand Concentration [5]: 6.5 pg/mL and 8.8 pg/mL
- Fas Ligand conc/live cell [5]: 1.3 pg/10^5 and 1.8 pg/10^5
- MFI, bead Fas Ligand [5]: 7.0 and 10.5
- Fas Ligand Concentration, Mean [6]: 7.2 pg/mL
- Fas Ligand conc/live cell, Mean [6]: 1.4 pg/10^5
- MFI, bead Fas Ligand, Mean [6]: 8.0
- Fas Ligand Concentration [6]: 6.5 pg/mL and 7.8 pg/mL
- Fas Ligand conc/live cell [6]: 1.5 pg/10^5 and 1.3 pg/10^5
- MFI, bead Fas Ligand [6]: 7.0 and 9.0
- Fas Ligand Concentration, Mean [7]: 7.5 pg/mL
- Fas Ligand conc/live cell, Mean [7]: 1.4 pg/10^5
- MFI, bead Fas Ligand, Mean [7]: 8.5
- Fas Ligand Concentration [7]: 6.5 pg/mL and 8.5 pg/mL
- Fas Ligand conc/live cell [7]: 1.2 pg/10^5 and 1.5 pg/10^5
- MFI, bead Fas Ligand [7]: 7.0 and 10.0
- Fas Ligand Concentration, Mean [8]: 13.2 pg/mL
- Fas Ligand conc/live cell, Mean [8]: 2.1 pg/10^5
- MFI, bead Fas Ligand, Mean [8]: 17.3
- Fas Ligand Concentration [8]: 14.0 pg/mL and 12.4 pg/mL
- Fas Ligand conc/live cell [8]: 2.2 pg/10^5 and 2.0 pg/10^5
- MFI, bead Fas Ligand [8]: 18.5 and 16.0
- Fas Ligand Concentration, Mean [9]: 6.9 pg/mL
- Fas Ligand conc/live cell, Mean [9]: 1.0 pg/10^5
- MFI, bead Fas Ligand, Mean [9]: 7.5
- Fas Ligand Concentration [9]: 7.8 pg/mL and 5.9 pg/mL
- Fas Ligand conc/live cell [9]: 1.2 pg/10^5 and 0.8 pg/10^5
- MFI, bead Fas Ligand [9]: 9.0 and 6.0
